# How the values were obtained:
# [1] = Solution stability of Epoprostenol in presence of 50 mg/ml of arginine; type: physicochemical; conditions: 50 mg/ml arginine
# Description: A solution of epoprostenol and 50 mg/ml of arginine was prepared and the stability of this solution at 5° C. was determined. The resulting data are presented in the Table 4: Stability of the same formulation was also conducted at pH 11.2; and the data are summarized in the Table 5 below: […]
# [2] = Dilution stability of reconstituted lyophile diluted to 10 μg/ml in IV fluids; type: physicochemical
# Description: Dilution studies were also conducted to determine whether the formulations of the present invention are suitable for IV infusion at room temperature. The stability studies were conducted at 25° C. and 30° C. to mimic the temperatures during the infusion over a 24 hour period in various large volume parenteral solutions.
# To this end, the stability of the epoprostenol lyophile reconstituted and diluted to 10 μg/ml in normal saline was stability monitored for 48 hours at 25° C. and 30° C. Dilution stability of all three primary formulation batches was conducted in normal saline at 25° C. and 30° C. In addition to these studies, dilution stability studies on one lot of primary formulation batch were conducted at 25° C. and 30° C. in 5% Dextrose (D5W), WFI (in-house) and lactated Ringer's solution.
# For the dilution studies, each vial was reconstituted with 5 ml of the diluent. The clear solution was transferred into a 50 ml volumetric flask. The vial was rinsed with 5 ml of diluent three times and the rinses were transferred to the flask. The contents of the flask were further diluted with the diluent and made up to the mark with the diluent. The pH of the diluted solution was measured and recorded. The contents of the flask were held at the temperatures noted and analyzed at predetermined time intervals.
# [3] = Solution stability of reconstituted lyophile (epoprostenol 0.5 mg/ml, arginine 50 mg/ml, pH 13.0); type: physicochemical; conditions: 50 mg/ml arginine
# Description: In the next set of experiments, the pH of the solution containing epoprostenol and arginine was adjusted to 13.0 with sodium hydroxide, and lyophilized. Upon reconstitution of the lyophile with 1 ml of Water for Injection, the reconstituted solution contains 50 mg/ml arginine and 0.5 mg/ml epoprostenol. The pH of the solution is 13.0. The stability data are presented in Table 6 for 5° C. and Table 7 for 29° C. below: […]
# [4] = cited from earlier work
smiles,measurement,setting,value
"CCCCC[C@H](O)/C=C/C1[C@H]2C/C(=C/CCCC(=O)[O-])OC2C[C@H]1O.[Na+] (stereo partly drawn) [Epoprostenol, (5Z,9(alpha),11(alpha),13E,15S)-6,9-epoxy-11,15-dihydroxyprosta-5,13-dien-1-oic acid]",% Assay of Epoprostenol by Area,"[1]; pH 11.2, 5 ± 1° C., 4.0 HRS",99.5%
same,Area % of 6-keto et al. impurities,"[1]; pH 11.2, 5 ± 1° C., 4.0 HRS",0.28%
same,% Assay of Epoprostenol by Area,"[1]; pH 11.2, 5 ± 1° C., 7.0 HRS",99.0%
same,Area % of 6-keto et al. impurities,"[1]; pH 11.2, 5 ± 1° C., 7.0 HRS",0.39%
same,% Assay of Epoprostenol by Area,"[1]; pH 11.2, 5 ± 1° C., 10.0 HRS",98.6%
same,Area % of 6-keto et al. impurities,"[1]; pH 11.2, 5 ± 1° C., 10.0 HRS",0.53%
same,% Assay of Epoprostenol by Area,"[1]; pH 11.2, 5 ± 1° C., 11.5 HRS",98.3%
same,Area % of 6-keto et al. impurities,"[1]; pH 11.2, 5 ± 1° C., 11.5 HRS",0.57%
same,% Assay of Epoprostenol by Area,"[1]; pH 11.2, 5 ± 1° C., 17.5 HRS",97.3%
same,Area % of 6-keto et al. impurities,"[1]; pH 11.2, 5 ± 1° C., 17.5 HRS",0.80%
same,% Assay of Epoprostenol by Area,"[1]; pH 11.2, 5 ± 1° C., Initial",100.0%
same,loss in potency,"[1]; pH 11.9, 5° C., at 53 hours",1.4%
same,% Assay of Epoprostenol by Area,"[1]; pH 11.9, 5 ± 1° C., 2 HRS",99.9%
same,Area % of 6-keto et al. impurities,"[1]; pH 11.9, 5 ± 1° C., 2 HRS",0.19%
same,% Assay of Epoprostenol by Area,"[1]; pH 11.9, 5 ± 1° C., 4 HRS",99.8%
same,Area % of 6-keto et al. impurities,"[1]; pH 11.9, 5 ± 1° C., 4 HRS",0.19%
same,% Assay of Epoprostenol by Area,"[1]; pH 11.9, 5 ± 1° C., 6 HRS",99.8%
same,Area % of 6-keto et al. impurities,"[1]; pH 11.9, 5 ± 1° C., 6 HRS",0.21%
same,% Assay of Epoprostenol by Area,"[1]; pH 11.9, 5 ± 1° C., 8 HRS",99.7%
same,Area % of 6-keto et al. impurities,"[1]; pH 11.9, 5 ± 1° C., 8 HRS",0.22%
same,% Assay of Epoprostenol by Area,"[1]; pH 11.9, 5 ± 1° C., 10 HRS",99.6%
same,Area % of 6-keto et al. impurities,"[1]; pH 11.9, 5 ± 1° C., 10 HRS",0.23%
same,% Assay of Epoprostenol by Area,"[1]; pH 11.9, 5 ± 1° C., 12.5 HRS",99.6%
same,Area % of 6-keto et al. impurities,"[1]; pH 11.9, 5 ± 1° C., 12.5 HRS",0.25%
same,% Assay of Epoprostenol by Area,"[1]; pH 11.9, 5 ± 1° C., 14.5 HRS",99.6%
same,Area % of 6-keto et al. impurities,"[1]; pH 11.9, 5 ± 1° C., 14.5 HRS",0.26%
same,% Assay of Epoprostenol by Area,"[1]; pH 11.9, 5 ± 1° C., 39 HRS",99.5%
same,Area % of 6-keto et al. impurities,"[1]; pH 11.9, 5 ± 1° C., 39 HRS",0.63%
same,% Assay of Epoprostenol by Area,"[1]; pH 11.9, 5 ± 1° C., 53 HRS",98.6%
same,Area % of 6-keto et al. impurities,"[1]; pH 11.9, 5 ± 1° C., 53 HRS",1.15%
same,% Assay of Epoprostenol by Area,"[1]; pH 11.9, 5 ± 1° C., 77 HRS",92.7%
same,Area % of 6-keto et al. impurities,"[1]; pH 11.9, 5 ± 1° C., 77 HRS",2.05%
same,% Assay of Epoprostenol by Area,"[1]; pH 11.9, 5 ± 1° C., 100 HRS",92.5%
same,Area % of 6-keto et al. impurities,"[1]; pH 11.9, 5 ± 1° C., 100 HRS",2.10%
same,% Assay of Epoprostenol by Area,"[1]; pH 11.9, 5 ± 1° C., 124 HRS",92.5%
same,Area % of 6-keto et al. impurities,"[1]; pH 11.9, 5 ± 1° C., 124 HRS",2.25%
same,% Assay of Epoprostenol by Area,"[1]; pH 11.9, 5 ± 1° C., Initial",100.0%
same,Area % of 6-keto et al. impurities,"[1]; pH 11.9, 5 ± 1° C., Initial",0.15%
same,drug degraded,"[2]; D5W, after 8 hours",approximately 84%
same,stability compared with normal saline,"[2]; lactated Ringer's solution, 25° C. and 30° C.",comparable to that of normal saline
same,potency maintained,"[2]; water, 30° C., for more than 18 hours",greater than 90%
same,loss of potency,"[3]; pH 13.0, 5° C., over 480 hours",3.4%
same,loss of potency on average,"[3]; pH 13.0, 5° C., over 480 hours",0.007 %/hour
same,% Assay of Epoprostenol by Area,"[3]; pH 13.0, 5 ± 1° C., 14.5 Hours",99.8%
same,Area % of 6-keto PGF et al. impurities,"[3]; pH 13.0, 5 ± 1° C., 14.5 Hours",0.20%
same,% Assay of Epoprostenol by Area,"[3]; pH 13.0, 5 ± 1° C., 53 Hours",98.8%
same,% Assay of Epoprostenol by Area,"[3]; pH 13.0, 5 ± 1° C., 124 Hours",98.0%
same,Area % of 6-keto PGF et al. impurities,"[3]; pH 13.0, 5 ± 1° C., 124 Hours",0.40%
same,% Assay of Epoprostenol by Area,"[3]; pH 13.0, 5 ± 1° C., 148 Hours",97.6%
same,Area % of 6-keto PGF et al. impurities,"[3]; pH 13.0, 5 ± 1° C., 148 Hours",0.45%
same,% Assay of Epoprostenol by Area,"[3]; pH 13.0, 5 ± 1° C., 192 Hours",97.3%
same,Area % of 6-keto PGF et al. impurities,"[3]; pH 13.0, 5 ± 1° C., 192 Hours",0.47%
same,% Assay of Epoprostenol by Area,"[3]; pH 13.0, 5 ± 1° C., 240 Hours",96.9%
same,Area % of 6-keto PGF et al. impurities,"[3]; pH 13.0, 5 ± 1° C., 240 Hours",0.61%
same,% Assay of Epoprostenol by Area,"[3]; pH 13.0, 5 ± 1° C., 480 Hours",96.6%
same,Area % of 6-keto PGF et al. impurities,"[3]; pH 13.0, 5 ± 1° C., 480 Hours",0.70%
same,% Assay of Epoprostenol by Area,"[3]; pH 13.0, 5 ± 1° C., Initial",100.0%
same,Area % of 6-keto PGF et al. impurities,"[3]; pH 13.0, 5 ± 1° C., Initial",0.16%
same,degradation,"[3]; pH 13.0, 29° C., in 12 hours",1.5%
same,% Assay of Epoprostenol by Area,"[3]; pH 13.0, 29 ± 1° C., 1 HRS",100.0%
same,Area % of 6-keto et al. impurities,"[3]; pH 13.0, 29 ± 1° C., 1 HRS",0.087%
same,% Assay of Epoprostenol by Area,"[3]; pH 13.0, 29 ± 1° C., 5 HRS",99.8%
same,Area % of 6-keto et al. impurities,"[3]; pH 13.0, 29 ± 1° C., 5 HRS",0.18%
same,% Assay of Epoprostenol by Area,"[3]; pH 13.0, 29 ± 1° C., 7 HRS",99.3%
same,Area % of 6-keto et al. impurities,"[3]; pH 13.0, 29 ± 1° C., 7 HRS",0.21%
same,% Assay of Epoprostenol by Area,"[3]; pH 13.0, 29 ± 1° C., 8 HRS",99.2%
same,Area % of 6-keto et al. impurities,"[3]; pH 13.0, 29 ± 1° C., 8 HRS",0.25%
same,% Assay of Epoprostenol by Area,"[3]; pH 13.0, 29 ± 1° C., 9 HRS",99.1%
same,Area % of 6-keto et al. impurities,"[3]; pH 13.0, 29 ± 1° C., 9 HRS",0.29%
same,% Assay of Epoprostenol by Area,"[3]; pH 13.0, 29 ± 1° C., 10 HRS",98.8%
same,Area % of 6-keto et al. impurities,"[3]; pH 13.0, 29 ± 1° C., 10 HRS",0.28%
same,% Assay of Epoprostenol by Area,"[3]; pH 13.0, 29 ± 1° C., 11 HRS",98.6%
same,Area % of 6-keto et al. impurities,"[3]; pH 13.0, 29 ± 1° C., 11 HRS",0.29%
same,% Assay of Epoprostenol by Area,"[3]; pH 13.0, 29 ± 1° C., 12 HRS",98.5%
same,Area % of 6-keto et al. impurities,"[3]; pH 13.0, 29 ± 1° C., 12 HRS",0.30%
same,% Assay of Epoprostenol by Area,"[3]; pH 13.0, 29 ± 1° C., 13 HRS",98.1%
same,Area % of 6-keto et al. impurities,"[3]; pH 13.0, 29 ± 1° C., 13 HRS",0.38%
same,% Assay of Epoprostenol by Area,"[3]; pH 13.0, 29 ± 1° C., 14 HRS",98.0%
same,Area % of 6-keto et al. impurities,"[3]; pH 13.0, 29 ± 1° C., 14 HRS",0.37%
same,% Assay of Epoprostenol by Area,"[3]; pH 13.0, 29 ± 1° C., 15 HRS",97.8%
same,Area % of 6-keto et al. impurities,"[3]; pH 13.0, 29 ± 1° C., 15 HRS",0.39%
same,% Assay of Epoprostenol by Area,"[3]; pH 13.0, 29 ± 1° C., 24 HRS",97.5%
same,Area % of 6-keto et al. impurities,"[3]; pH 13.0, 29 ± 1° C., 24 HRS",0.39%
same,% Assay of Epoprostenol by Area,"[3]; pH 13.0, 29 ± 1° C., 36 HRS",97.5%
same,Area % of 6-keto et al. impurities,"[3]; pH 13.0, 29 ± 1° C., 36 HRS",0.45%
same,% Assay of Epoprostenol by Area,"[3]; pH 13.0, 29 ± 1° C., Initial",100.0%
same,Area % of 6-keto et al. impurities,"[3]; pH 13.0, 29 ± 1° C., Initial",0.072%
N=C(N)NCCC[C@H](N)C(=O)O [arginine],basic pKa,[4],10.8

# — patent US8598227B2, “Epoprostenol formulation and method of making thereof” (Actelion Pharmaceuticals Ltd., priority 2006, dated 2013)
